Where two headings read alike, the source gives them in different places.
Biological target: T1, human TRPV4 (hTRPV4/CHO cells) (Homo sapiens, UniProt Q9HBA0)
T1 construct: expressed in transfected cells; host or cells: CHO-K1
Assay: Test Example 1: TRPV4 inhibitory activity (IC50 value), 4α-PDD stimulation, Fluo4 calcium fluorescence (FLIPR TETRA)
Assay type: cell-based

[1] = Test Example 1, 4α-PDD stimulation, read-out: Test 1 IC50

T1 sequence (Q9HBA0 whole entry): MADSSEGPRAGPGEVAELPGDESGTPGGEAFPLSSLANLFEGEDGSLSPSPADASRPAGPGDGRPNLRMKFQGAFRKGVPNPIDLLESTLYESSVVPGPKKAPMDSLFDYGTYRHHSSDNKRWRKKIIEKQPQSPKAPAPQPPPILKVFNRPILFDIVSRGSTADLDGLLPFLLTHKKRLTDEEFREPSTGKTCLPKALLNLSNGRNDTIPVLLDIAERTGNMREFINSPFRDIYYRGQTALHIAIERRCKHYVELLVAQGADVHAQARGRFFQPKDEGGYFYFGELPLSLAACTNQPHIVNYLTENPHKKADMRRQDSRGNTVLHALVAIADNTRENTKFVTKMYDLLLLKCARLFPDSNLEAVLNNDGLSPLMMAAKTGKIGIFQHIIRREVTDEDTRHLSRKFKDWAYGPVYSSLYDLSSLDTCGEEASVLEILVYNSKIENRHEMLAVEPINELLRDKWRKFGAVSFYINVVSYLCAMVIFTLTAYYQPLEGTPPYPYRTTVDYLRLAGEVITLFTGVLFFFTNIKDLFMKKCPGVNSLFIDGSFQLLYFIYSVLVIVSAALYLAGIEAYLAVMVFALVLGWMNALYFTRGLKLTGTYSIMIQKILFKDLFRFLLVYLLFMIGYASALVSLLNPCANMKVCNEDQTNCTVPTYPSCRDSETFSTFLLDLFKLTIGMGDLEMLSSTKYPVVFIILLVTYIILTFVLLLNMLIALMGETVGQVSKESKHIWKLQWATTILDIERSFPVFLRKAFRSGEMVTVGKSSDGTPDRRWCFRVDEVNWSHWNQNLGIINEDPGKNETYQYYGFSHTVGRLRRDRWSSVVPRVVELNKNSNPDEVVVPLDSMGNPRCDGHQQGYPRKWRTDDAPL

IC50 [1]	IC50 (1 μmol/L 4α-PDD, Fluo4-AM, read-out: TRPV4 inhibitory activity (IC50 value))	SMILES
100 to 1000 nM	–	NCc1nc(CO)sc1-c1csc(NC(=O)C2CN(c3ccc(C(F)(F)F)cc3)C2)n1 [Compound I-340]
< 100 nM	–	CC(C)c1ccc(N2CC(C(=O)Nc3nc(-c4sc(CO)nc4CO)cs3)C2)cc1 [Compound I-341]
100 to 1000 nM	–	O=C(Nc1nc(-c2sc(CO)nc2CO)cs1)C1CN(c2ccccc2Cl)C1 [Compound I-342]
< 100 nM	–	O=C(Nc1nc(-c2sc(CO)nc2CO)cs1)C1CN(c2ccc(Cl)cc2)C1 [Compound I-343]
100 to 1000 nM	–	CC(C)OC(=O)N1C[C@H](c2ccccc2)C[C@H]1C(=O)Nc1nc(-c2sc(CO)nc2CO)cs1 [Compound I-344]
< 100 nM	–	NC(=O)NCc1nc(CO)sc1-c1csc(NC(=O)C2CN(c3ccc(C(F)(F)F)cc3)C2)n1 [Compound I-345]
< 100 nM	–	Cc1nc(CO)sc1-c1csc(NC(=O)[C@H]2C[C@@H](OCc3ccccc3C(F)(F)F)C2)n1 [Compound I-346]
100 to 1000 nM	–	O=C(Nc1nc(-c2sc(CO)nc2CO)cs1)[C@H]1C[C@@H](OCc2ccccc2C(F)(F)F)C1 [Compound I-347]
< 100 nM	–	O=C(Nc1nc(-c2sc(CO)nc2CCCO)cs1)C1CN(c2ccc(C(F)(F)F)cc2)C1 [Compound I-348]
100 to 1000 nM	–	CC(C)(F)C(=O)N1C[C@H](c2ccccc2)C[C@H]1C(=O)Nc1nc(-c2sc(CO)nc2CO)cs1 [Compound I-349]
< 100 nM	–	CC(C)OC(=O)NCc1nc(CO)sc1-c1csc(NC(=O)C2CN(c3ccc(C(F)(F)F)cc3)C2)n1 [Compound I-350]
1000 to 8000 nM	–	O=C(O)CCc1nc(CO)sc1-c1csc(NC(=O)C2CN(c3ccc(C(F)(F)F)cc3)C2)n1 [Compound I-351]
< 100 nM	–	O=C(Nc1nc(-c2sc(CO)nc2CCCN2CCOCC2)cs1)C1CN(c2ccc(C(F)(F)F)cc2)C1 [Compound I-352]
< 100 nM	–	CC(=O)NCc1nc(CO)sc1-c1csc(NC(=O)C2CN(c3ccc(C(F)(F)F)cc3)C2)n1 [Compound I-353]
< 100 nM	–	Cc1nc(C)c(-c2csc(NC(=O)[C@H]3C[C@@H](OCc4ccc(C(F)(F)F)cc4)C3)n2)s1 [Compound I-354]
100 to 1000 nM	–	Cc1nc(CO)sc1-c1csc(NC(=O)[C@H]2C[C@@H](C(F)F)C2)n1 [Compound I-355]
100 to 1000 nM	–	Cc1nc(CO)sc1-c1csc(NC(=O)[C@H]2C[C@@H](OCC(F)(F)F)C2)n1 [Compound I-356]
< 100 nM	–	Cc1nc(CO)sc1-c1csc(NC(=O)[C@H]2C[C@H](OCC(F)(F)F)C2)n1 [Compound I-357]
100 to 1000 nM	–	NC(=O)Cc1nc(CO)sc1-c1csc(NC(=O)Cc2ccc(S(=O)(=O)C(F)(F)F)cc2)n1 [Compound I-358]
< 100 nM	–	N#CCc1nc(CO)sc1-c1csc(NC(=O)Cc2ccc(S(=O)(=O)C(F)(F)F)cc2)n1 [Compound I-359]
< 100 nM	–	O=C(Cc1ccc(S(=O)(=O)C(F)(F)F)cc1)Nc1nc(-c2sc(CO)nc2CCCO)cs1 [Compound I-360]
1000 to 8000 nM	–	Cc1nc(CO)sc1-c1csc(NC(=O)C2CC(N3CCC(F)(F)C3)C2)n1 (stereo not shown) [Compound I-361]
1000 to 8000 nM	–	Cc1nc(CO)sc1-c1csc(NC(=O)C2CC(N3CCC(F)(F)C3)C2)n1 (stereo not shown) [Compound I-362]
100 to 1000 nM	–	O=C(Cc1ccc(S(=O)(=O)C(F)(F)F)cc1)Nc1nc(-c2sc(CO)nc2CCC(=O)N2CCOCC2)cs1 [Compound I-363]

IC50 [1]	IC50 (1 μmol/L 4α-PDD, Fluo4-AM, read-out: TRPV4 inhibitory activity (IC50 value))	SMILES
1000 to 8000 nM	–	Cc1nc(C)c(-c2csc(N(CCCN3CCOCC3)C(=O)Cc3ccc(S(=O)(=O)C(F)(F)F)cc3)n2)s1 [Compound I-364]
< 100 nM	–	Cc1nc(C)c(-c2csc(NC(=O)[C@H]3C[C@H](Oc4ccc(C(F)(F)F)cc4)C3)n2)s1 [Compound I-365]
< 100 nM	–	O=C(Cc1ccc(S(=O)(=O)C(F)(F)F)cc1)Nc1nc(-c2sc(CO)nc2CCO)cs1 [Compound I-366]
< 100 nM	–	Cc1nc(C)c(-c2csc(NC(=O)[C@H]3C[C@@H](N(C)Cc4ccc(C(F)(F)F)cc4)C3)n2)s1 [Compound I-367]
< 100 nM	–	Cc1nc(C)c(-c2csc(NC(=O)[C@H]3C[C@H](N(C)Cc4ccc(C(F)(F)F)cc4)C3)n2)s1 [Compound I-368]
< 100 nM	–	Cc1nc(CO)sc1-c1csc(NC(=O)C2CN(c3ccc(C(F)(F)F)cc3)C2)n1 [Compound I-369]
< 100 nM	–	NC(=O)OCCc1nc(CO)sc1-c1csc(NC(=O)Cc2ccc(S(=O)(=O)C(F)(F)F)cc2)n1 [Compound I-370]
100 to 1000 nM	–	O=C(Nc1nc(-c2sc(CO)nc2CO)cs1)C1CN(c2ccccc2)C1 [Compound I-371]
100 to 1000 nM	–	O=C(Nc1nc(-c2sc(CO)nc2CO)cs1)C1CN(c2ccc(F)cc2)C1 [Compound I-372]
< 100 nM	–	NC(=O)OCc1nc(CO)sc1-c1csc(NC(=O)Cc2ccc(S(=O)(=O)C(F)(F)F)cc2)n1 [Compound I-373]
1000 to 8000 nM	–	Cc1nc(C)c(-c2csc(N(Cc3ccc(C(F)(F)F)cc3)C(=O)C3CN(O)C3)n2)s1 [Compound I-374]
< 100 nM	–	O=C(Cc1ccc(S(=O)(=O)C(F)(F)F)cc1)Nc1nc(-c2sc(CO)nc2CCN2CCOCC2)cs1 [Compound I-375]
1000 to 8000 nM	–	O=C(Cc1ccc(S(=O)(=O)C(F)(F)F)cc1)Nc1nc(-c2sc(CO)nc2CC(=O)N2CCOCC2)cs1 [Compound I-376]
< 100 nM	–	O=C(Cc1ccc(S(=O)(=O)C(F)(F)F)cc1)Nc1nc(-c2sc(CO)nc2CCCN2CCOCC2)cs1 [Compound I-377]
100 to 1000 nM	–	Cc1nc(COC(N)=O)sc1-c1csc(NC(=O)Cc2ccc(S(=O)(=O)C(F)(F)F)cc2)n1 [Compound I-378]
< 100 nM	–	Cc1nc(C)c(-c2csc(NC(=O)C3CCN(c4ncc(C(F)(F)F)cn4)CC3)n2)s1 [Compound I-379]
100 to 1000 nM	–	Cc1nc(CO)oc1-c1csc(NC(=O)Cc2ccc(S(=O)(=O)C(F)(F)F)cc2)n1 [Compound I-380]
100 to 1000 nM	–	NC(=O)NCc1nc(CO)sc1-c1csc(NC(=O)Cc2ccc(S(=O)(=O)C(F)(F)F)cc2)n1 [Compound I-381]
< 100 nM	22 nM	CC(=O)NCc1nc(CO)sc1-c1csc(NC(=O)Cc2ccc(S(=O)(=O)C(F)(F)F)cc2)n1 [Compound I-382]
100 to 1000 nM	–	O=C(CO)NCc1nc(CO)sc1-c1csc(NC(=O)Cc2ccc(S(=O)(=O)C(F)(F)F)cc2)n1 [Compound I-383]
100 to 1000 nM	–	NS(=O)(=O)NCc1nc(CO)sc1-c1csc(NC(=O)Cc2ccc(S(=O)(=O)C(F)(F)F)cc2)n1 [Compound I-384]
100 to 1000 nM	–	O=C(Cc1ccc(S(=O)(=O)C(F)(F)F)cc1)Nc1nc(-c2sc(CO)nc2CN2CCOCC2)cs1 [Compound I-385]
1000 to 8000 nM	–	Cc1nc(C)c(-c2csc(NC(=O)OC3CN(c4ncc(C(F)(F)F)cn4)C3)n2)s1 [Compound I-386]
< 100 nM	–	Cc1nc(C)c(-c2csc(NC(=O)[C@H]3CCN(c4ncc(C(F)(F)F)cn4)C3)n2)s1 [Compound I-388]

IC50 [1]	IC50 (1 μmol/L 4α-PDD, Fluo4-AM, read-out: TRPV4 inhibitory activity (IC50 value))	SMILES
< 100 nM	–	CNC(=O)NCc1nc(CO)sc1-c1csc(NC(=O)Cc2ccc(S(=O)(=O)C(F)(F)F)cc2)n1 [Compound I-389]
< 100 nM	–	CN(C)C(=O)NCc1nc(CO)sc1-c1csc(NC(=O)Cc2ccc(S(=O)(=O)C(F)(F)F)cc2)n1 [Compound I-390]
100 to 1000 nM	–	CN(Cc1nc(CO)sc1-c1csc(NC(=O)Cc2ccc(S(=O)(=O)C(F)(F)F)cc2)n1)C(N)=O [Compound I-391]
< 100 nM	–	Cc1nc(CC#N)sc1-c1csc(NC(=O)Cc2ccc(S(=O)(=O)C(F)(F)F)cc2)n1 [Compound I-392]
100 to 1000 nM	–	CC(=O)N(C)Cc1nc(CO)sc1-c1csc(NC(=O)Cc2ccc(S(=O)(=O)C(F)(F)F)cc2)n1 [Compound I-393]
< 100 nM	–	Cc1nc(C)c(-c2csc(NC(=O)[C@@H]3CCN(c4ncc(C(F)(F)F)cn4)C3)n2)s1 [Compound I-394]
< 100 nM	–	N#CCc1nc(CO)sc1-c1csc(NC(=O)C2CN(c3ncc(C(F)(F)F)cn3)C2)n1 [Compound I-395]
< 100 nM	–	Cc1nc(CN)sc1-c1csc(NC(=O)Cc2ccc(S(=O)(=O)C(F)(F)F)cc2)n1 [Compound I-396]
100 to 1000 nM	–	CC(=O)NCc1nc(C)c(-c2csc(NC(=O)Cc3ccc(S(=O)(=O)C(F)(F)F)cc3)n2)s1 [Compound I-397]
1000 to 8000 nM	–	Cc1nc(CNC(N)=O)sc1-c1csc(NC(=O)Cc2ccc(S(=O)(=O)C(F)(F)F)cc2)n1 [Compound I-398]
1000 to 8000 nM	–	Cc1nc(CNS(C)(=O)=O)sc1-c1csc(NC(=O)Cc2ccc(S(=O)(=O)C(F)(F)F)cc2)n1 [Compound I-399]
100 to 1000 nM	–	COC(=O)NCc1nc(C)c(-c2csc(NC(=O)Cc3ccc(S(=O)(=O)C(F)(F)F)cc3)n2)s1 [Compound I-400]
100 to 1000 nM	–	Cc1nc(C)c(-c2csc(NC(=O)CC3CN(c4ncc(C(F)(F)F)cn4)C3)n2)s1 [Compound I-401]
100 to 1000 nM	–	Cc1nc(C#N)sc1-c1csc(NC(=O)Cc2ccc(S(=O)(=O)C(F)(F)F)cc2)n1 [Compound I-402]
100 to 1000 nM	–	Cc1nc(CO)sc1-c1csc(NC(=O)C2CN(S(=O)(=O)C(F)(F)F)C2)n1 [Compound I-403]
100 to 1000 nM	–	Cc1nc(C(=N)N)sc1-c1csc(NC(=O)Cc2ccc(S(=O)(=O)C(F)(F)F)cc2)n1 [Compound I-404]
< 100 nM	–	Cc1nc(CO)sc1-c1csc(NC(=O)[C@H]2C[C@@H](c3ccc(C(F)(F)F)cc3)C2)n1 [Compound I-405]
1000 to 8000 nM	–	Cc1nc(CO)sc1-c1csc(NC(=O)Cn2cnc(C(F)(F)F)c2)n1 [Compound I-406]
100 to 1000 nM	–	NC(=O)CCc1nc(CO)sc1-c1csc(NC(=O)Cc2ccc(S(=O)(=O)C(F)(F)F)cc2)n1 [Compound I-407]
< 100 nM	–	Cc1nc(C)c(-c2csc(NC(=O)Cc3cccc(Br)c3)n2)s1 [Compound I-408]
100 to 1000 nM	–	Cc1nc(C)c(-c2csc(NC(=O)Cc3cccc(N)c3)n2)s1 [Compound I-409]
< 100 nM	–	Cc1nc(CO)sc1-c1csc(NC(=O)Cc2cnc(C(F)(F)F)cn2)n1 [Compound I-410]
100 to 1000 nM	–	Cc1nc(CC(N)=O)sc1-c1csc(NC(=O)Cc2ccc(S(=O)(=O)C(F)(F)F)cc2)n1 [Compound I-411]
1000 to 8000 nM	–	CN(C)Cc1nc(CO)sc1-c1csc(NC(=O)Cc2ccc(S(=O)(=O)C(F)(F)F)cc2)n1 [Compound I-412]
